Source: US20100099561A1, “HETEROBICYCLIC ALKYLTHIO-BRIDGED ISOXAZOLINES” (E.I. DU PONT DE NEMOURS AND COMPANY, priority 2008, published 2010)

Legend:
Assay type in all cases: in vivo
[1] = system: pigweed (Amaranthus retroflexus); assay: Test A preemergence, pigweed; conditions: 0 to 100 scale (0 no effect, 100 complete control)
Procedure, shortened: (§1)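 Ratings of 0–100 (0 no effect, 100 complete control) came from visual comparison with untreated controls after roughly ten days in a greenhouse. Plants in loam soil–sand blend were treated with compound in non-phytotoxic solvent plus surfactant, pre- or postemergence (one- to two-leaf stage).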

[2] = system: yellow nutsedge (Cyperus esculentus); assay: Test B preemergence, yellow nutsedge; conditions: scale 0 to 100
Description: (§2) Seeds of plant species selected from blackgrass (Alopecurus myosuroides), downy bromegrass (Bromus tectorum), green foxtail (Setaria viridis), Italian ryegrass (Lolium multiflorum), wheat (Triticum aestivum), wild oat (Avena fatua), catchweed bedstraw (Galium aparine), bermudagrass (Cynodon dactylon), Surinam grass (Brachiaria decumbens), cocklebur (Xanthium strumarium), corn (Zea mays), large crabgrass (Digitaria sanguinalis), woolly cupgrass (Eriochloa villosa), giant foxtail (Setaria faberii), goosegrass (Eleusine indica), johnsongrass (Sorghum halepense), kochia (Kochia scoparia), lambsquarters (Chenopodium album), morningglory (Ipomoea coccinea), nightshade (eastern black nightshade, Solanum ptycanthum), yellow nutsedge (Cyperus esculentus), pigweed (Amaranthus retroflexus), ragweed (common ragweed, Ambrosia elatior), soybean (Glycine max), sunflower (common oilseed sunflower, Helianthus annuus), Russian thistle (Salsola kali), and velvetleaf (Abutilon theophrasti) were planted into a blend of loam soil and sand and treated preemergence with test compounds formulated in a non-phytotoxic solvent mixture which included a surfactant. Treated plants and controls were maintained in a greenhouse for 13 to 15 days, after which time all species were compared to controls and visually evaluated. Plant response ratings, summarized in Table B, are based on a scale of 0 to 100 where 0 is no effect and 100 is complete control. A dash (-) response means no test result.

[3] = system: green foxtail (Setaria viridis); assay: Test B preemergence, green foxtail; conditions: scale 0 to 100
Description: as §2

[4] = system: velvetleaf (Abutilon theophrasti); assay: Test B preemergence, velvetleaf; conditions: Preemergence, scale 0 to 100
Description: as §2

corn (Zea mays) [5] = assay: Test A preemergence, corn; conditions: 0 to 100 scale (0 no effect, 100 complete control)
Procedure, shortened: as §1

[6] = system: ducksalad (Heteranthera limosa); assay: Test B flooded paddy test, ducksalad; conditions: Flood, scale 0 to 100
Procedure, shortened: (§3)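 2-leaf plants; pots flooded 3 cm above soil; compound added to paddy water; depth maintained. Greenhouse 13–15 d. Visual rating vs controls, 0 (no effect) to 100 (complete control); dash = no result.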

corn (Zea mays) [7] = assay: Test A postemergence, corn; conditions: 0 to 100 scale (0 no effect, 100 complete control)
Procedure, shortened: as §1

[8] = system: giant foxtail (Setaria faberi); assay: Test A preemergence, giant foxtail; conditions: 0 to 100 scale (0 no effect, 100 complete control)
Procedure, shortened: as §1

[9] = system: sunflower (common oilseed sunflower, Helianthus annuus); assay: Test B preemergence, sunflower; conditions: Preemergence, scale 0 to 100
Description: as §2

[10] = system: giant foxtail (Setaria faberi); assay: Test A postemergence, giant foxtail; conditions: 0 to 100 scale (0 no effect, 100 complete control)
Procedure, shortened: as §1

[11] = system: barnyardgrass (Echinochloa crus-galli); assay: Test A preemergence, barnyardgrass; conditions: 0 to 100 scale (0 no effect, 100 complete control)
Procedure, shortened: as §1

[12] = system: umbrella sedge (Cyperus difformis); assay: Test B flooded paddy test, umbrella sedge; conditions: Flood, scale 0 to 100
Procedure, shortened: as §3

[13] = system: nightshade (eastern black nightshade, Solanum ptycanthum); assay: Test B preemergence, nightshade; conditions: scale 0 to 100
Description: as §2

soybean (Glycine max) = assay: Test B preemergence, soybean; conditions: Preemergence, scale 0 to 100
Description: as §2

[14] = system: giant foxtail (Setaria faberii); assay: Test B preemergence, giant foxtail; conditions: scale 0 to 100
Description: as §2

[15] = system: large crabgrass (Digitaria sanguinalis); assay: Test A preemergence, large crabgrass; conditions: 0 to 100 scale (0 no effect, 100 complete control)
Procedure, shortened: as §1

[16] = system: barnyardgrass (Echinochloa crus-galli); assay: Test A postemergence, barnyardgrass; conditions: 0 to 100 scale (0 no effect, 100 complete control)
Procedure, shortened: as §1

[17] = system: barnyardgrass (Echinochloa crus-galli); assay: Test B flooded paddy test, barnyardgrass; conditions: Flood
Procedure, shortened: as §3

[18] = system: catchweed bedstraw (Galium aparine); assay: Test B preemergence, catchweed bedstraw; conditions: scale 0 to 100
Description: as §2

wild oat (Avena fatua) = assay: Test B preemergence, wild oat; conditions: scale 0 to 100
Description: as §2

[19] = 250 g ai/ha, scale 0 to 100 (0 no effect, 100 complete control)

## CC1(C)CC(S(=O)(=O)Cc2c(C(F)(F)Cl)nc3n(c2=O)CCC3)=NO1 [Compound 18]
[1]; 125 g ai/ha
  Plant response rating, Pigweed: 60
[1]; 500 g ai/ha
  Plant response rating, Pigweed: 100
[2]; 16 g ai/ha
  Plant response rating, Nutsedge, Yellow: 0
[2]; 31 g ai/ha
  Plant response rating, Nutsedge, Yellow: 0
[2]; 62 g ai/ha
  Plant response rating, Nutsedge, Yellow: 20
[2]; 125 g ai/ha
  Plant response rating, Nutsedge, Yellow: 45
[3]; 16 g ai/ha
  Plant response rating, Foxtail, Green: 30
[3]; 31 g ai/ha
  Plant response rating, Foxtail, Green: 80
[3]; 62 g ai/ha
  Plant response rating, Foxtail, Green: 98
[3]; 125 g ai/ha
  Plant response rating, Foxtail, Green: 98
[4]; 16 g ai/ha
  Plant response rating, Velvetleaf: 0
[4]; 31 g ai/ha
  Plant response rating, Velvetleaf: 0
[4]; 62 g ai/ha
  Plant response rating, Velvetleaf: 0
[4]; 125 g ai/ha
  Plant response rating, Velvetleaf: 0
Corn (Zea mays) [5]; 125 g ai/ha
  Plant response rating, Corn: 0
Corn (Zea mays) [5]; 500 g ai/ha
  Plant response rating, Corn: 0
[6]; 31 g ai/ha
  Plant response rating, Ducksalad: 0
[6]; 62 g ai/ha
  Plant response rating, Ducksalad: 0
[6]; 125 g ai/ha
  Plant response rating, Ducksalad: 0
[6]; 250 g ai/ha
  Plant response rating, Ducksalad: 0
Corn (Zea mays) [7]; 125 g ai/ha
  Plant response rating, Corn: 0
Corn (Zea mays) [7]; 500 g ai/ha
  Plant response rating, Corn: 40
[8]; 125 g ai/ha
  Plant response rating, Foxtail, Giant: 90
[8]; 500 g ai/ha
  Plant response rating, Foxtail, Giant: 100
[9]; 16 g ai/ha
  Plant response rating, Sunflower: 0
[9]; 31 g ai/ha
  Plant response rating, Sunflower: 0
[9]; 62 g ai/ha
  Plant response rating, Sunflower: 0
[9]; 125 g ai/ha
  Plant response rating, Sunflower: 0
[10]; 125 g ai/ha
  Plant response rating, Foxtail, Giant: 70
[10]; 500 g ai/ha
  Plant response rating, Foxtail, Giant: 80
[11]; 125 g ai/ha
  Plant response rating, Barnyardgrass: 70
[11]; 500 g ai/ha
  Plant response rating, Barnyardgrass: 100
[12]; 31 g ai/ha
  Plant response rating, Sedge, Umbrella: 0
[12]; 62 g ai/ha
  Plant response rating, Sedge, Umbrella: 0
[12]; 125 g ai/ha
  Plant response rating, Sedge, Umbrella: 0
[12]; 250 g ai/ha
  Plant response rating, Sedge, Umbrella: 0
[13]; 16 g ai/ha
  Plant response rating, Nightshade: 0
[13]; 31 g ai/ha
  Plant response rating, Nightshade: 0
[13]; 62 g ai/ha
  Plant response rating, Nightshade: 0
[13]; 125 g ai/ha
  Plant response rating, Nightshade: 95
Soybean (Glycine max); 16 g ai/ha
  Plant response rating, Soybean: 0
Soybean (Glycine max); 31 g ai/ha
  Plant response rating, Soybean: 0
Soybean (Glycine max); 62 g ai/ha
  Plant response rating, Soybean: 0
Soybean (Glycine max); 125 g ai/ha
  Plant response rating, Soybean: 0
[14]; 16 g ai/ha
  Plant response rating, Foxtail, Giant: 0
[14]; 31 g ai/ha
  Plant response rating, Foxtail, Giant: 80
[14]; 62 g ai/ha
  Plant response rating, Foxtail, Giant: 85
[14]; 125 g ai/ha
  Plant response rating, Foxtail, Giant: 98
[15]; 125 g ai/ha
  Plant response rating, Crabgrass, Large: 90
[15]; 500 g ai/ha
  Plant response rating, Crabgrass, Large: 100
[16]; 125 g ai/ha
  Plant response rating, Barnyardgrass: 80
[16]; 500 g ai/ha
  Plant response rating, Barnyardgrass: 80
[17]; 31 g ai/ha, scale 0 to 100
  Plant response rating, Barnyardgrass: 0
[17]; 62 g ai/ha, scale 0 to 100
  Plant response rating, Barnyardgrass: 0
[17]; 125 g ai/ha, scale 0 to 100
  Plant response rating, Barnyardgrass: 0
[17]; [19]
  Plant response rating, Barnyardgrass: 0
[18]; 62 g ai/ha
  Plant response rating, Galium: 0
[18]; 125 g ai/ha
  Plant response rating, Galium: 0
Wild oat (Avena fatua); 16 g ai/ha
  Plant response rating, Oat, Wild: 0
Wild oat (Avena fatua); 31 g ai/ha
  Plant response rating, Oat, Wild: 0
Wild oat (Avena fatua); 62 g ai/ha
  Plant response rating, Oat, Wild: 0
Wild oat (Avena fatua); 125 g ai/ha
  Plant response rating, Oat, Wild: 45

## CC1(C)CC(S(=O)(=O)Cc2c(C(F)(F)F)nc3n(c2=O)CCS3)=NO1 [Compound 6]
[1]; 125 g ai/ha
  Plant response rating, Pigweed: 60
[1]; 500 g ai/ha
  Plant response rating, Pigweed: 100
[2]; 16 g ai/ha
  Plant response rating, Nutsedge, Yellow: 0
[2]; 31 g ai/ha
  Plant response rating, Nutsedge, Yellow: 0
[2]; 62 g ai/ha
  Plant response rating, Nutsedge, Yellow: 0
[2]; 125 g ai/ha
  Plant response rating, Nutsedge, Yellow: 45
[3]; 16 g ai/ha
  Plant response rating, Foxtail, Green: 50
[3]; 31 g ai/ha
  Plant response rating, Foxtail, Green: 50
[3]; 62 g ai/ha
  Plant response rating, Foxtail, Green: 50
[3]; 125 g ai/ha
  Plant response rating, Foxtail, Green: 100
[4]; 16 g ai/ha
  Plant response rating, Velvetleaf: 0
[4]; 31 g ai/ha
  Plant response rating, Velvetleaf: 0
[4]; 62 g ai/ha
  Plant response rating, Velvetleaf: 0
[4]; 125 g ai/ha
  Plant response rating, Velvetleaf: 0
Corn (Zea mays) [5]; 125 g ai/ha
  Plant response rating, Corn: 0
Corn (Zea mays) [5]; 500 g ai/ha
  Plant response rating, Corn: 0
[6]; 62 g ai/ha
  Plant response rating, Ducksalad: 40
[6]; 250 g ai/ha
  Plant response rating, Ducksalad: 65
Corn (Zea mays) [7]; 125 g ai/ha
  Plant response rating, Corn: 0
Corn (Zea mays) [7]; 500 g ai/ha
  Plant response rating, Corn: 0
[8]; 125 g ai/ha
  Plant response rating, Foxtail, Giant: 80
[8]; 500 g ai/ha
  Plant response rating, Foxtail, Giant: 100
[9]; 16 g ai/ha
  Plant response rating, Sunflower: 0
[9]; 31 g ai/ha
  Plant response rating, Sunflower: 0
[9]; 62 g ai/ha
  Plant response rating, Sunflower: 0
[9]; 125 g ai/ha
  Plant response rating, Sunflower: 0
[10]; 125 g ai/ha
  Plant response rating, Foxtail, Giant: 80
[10]; 500 g ai/ha
  Plant response rating, Foxtail, Giant: 90
[11]; 125 g ai/ha
  Plant response rating, Barnyardgrass: 70
[11]; 500 g ai/ha
  Plant response rating, Barnyardgrass: 90
[12]; 62 g ai/ha
  Plant response rating, Sedge, Umbrella: 0
[12]; 250 g ai/ha
  Plant response rating, Sedge, Umbrella: 75
[13]; 16 g ai/ha
  Plant response rating, Nightshade: 0
[13]; 31 g ai/ha
  Plant response rating, Nightshade: 45
[13]; 62 g ai/ha
  Plant response rating, Nightshade: 95
[13]; 125 g ai/ha
  Plant response rating, Nightshade: 98
Soybean (Glycine max); 16 g ai/ha
  Plant response rating, Soybean: 0
Soybean (Glycine max); 31 g ai/ha
  Plant response rating, Soybean: 0
Soybean (Glycine max); 62 g ai/ha
  Plant response rating, Soybean: 0
Soybean (Glycine max); 125 g ai/ha
  Plant response rating, Soybean: 0
[14]; 16 g ai/ha
  Plant response rating, Foxtail, Giant: 0
[14]; 31 g ai/ha
  Plant response rating, Foxtail, Giant: 95
[14]; 62 g ai/ha
  Plant response rating, Foxtail, Giant: 100
[14]; 125 g ai/ha
  Plant response rating, Foxtail, Giant: 100
[15]; 125 g ai/ha
  Plant response rating, Crabgrass, Large: 80
[15]; 500 g ai/ha
  Plant response rating, Crabgrass, Large: 100
[16]; 125 g ai/ha
  Plant response rating, Barnyardgrass: 70
[16]; 500 g ai/ha
  Plant response rating, Barnyardgrass: 80
[17]; 62 g ai/ha, scale 0 to 100
  Plant response rating, Barnyardgrass: 0
[17]; [19]
  Plant response rating, Barnyardgrass: 0
[18]; 16 g ai/ha
  Plant response rating, Galium: 0
[18]; 31 g ai/ha
  Plant response rating, Galium: 50
[18]; 62 g ai/ha
  Plant response rating, Galium: 50
[18]; 125 g ai/ha
  Plant response rating, Galium: 100
Wild oat (Avena fatua); 16 g ai/ha
  Plant response rating, Oat, Wild: 30
Wild oat (Avena fatua); 31 g ai/ha
  Plant response rating, Oat, Wild: 45
Wild oat (Avena fatua); 62 g ai/ha
  Plant response rating, Oat, Wild: 60
Wild oat (Avena fatua); 125 g ai/ha
  Plant response rating, Oat, Wild: 60
